29 compounds from PubChem BioAssay (NCI) can be followed below.

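Exposure lasted 48 hours, with cells grown in 96-well plates and compounds tested at five concentrations. The concentration for 50% growth inhibition is given as GI50. TGI marks complete inhibition of growth.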

The first assay has as its system SNB-19 CNS. Briefly: inhibition of tumour cell growth, NCI panel, 48 h.
For the compound `CCc1cc(Cc2cc(CC)c(NC(=O)C(=O)Cc3ccccn3)c(CC)c2Cl)c(Cl)c(CC)c1NC(=O)C(=O)Cc1ccccn1`, the TGI is greater than 100 µM.

The compound `CC(C)OP(=O)(OC(C)C)C(=NCCN=C(NNc1ccc([N+](=O)[O-])cc1)P(=O)(OC(C)C)OC(C)C)NNc1ccc([N+](=O)[O-])cc1` came in with a TGI greater than 100 µM.

In the case of `COC(OC)C(C)CC(=O)N(C)C` (stereo unspecified), the TGI is greater than 100 µM.

On to `O=S1(=O)OCCOS(=O)(=O)C1Br`, for which the TGI was greater than 100 µM.

The compound `CC(C)=Cc1cc(C(=O)Nc2ccc(Cl)c(Cl)c2)nc(N)n1` gave a TGI greater than 100 µM.

As to `C#CC1(O)CCC2C3CCc4cc(Oc5nc(F)nc(-c6c7ccccc7c7sc8ccccc8n67)n5)ccc4C3CC[C@@]21C` (stereo partly specified), the TGI was greater than 100 µM.

In the case of `CC(=O)/C(=C\c1cccc([N+](=O)[O-])c1)C(=O)Nc1ccccc1C`, the TGI is greater than 100 µM.

In the case of `Clc1ccc(C(c2ccc(Cl)cc2)c2ccccn2)cc1`, the TGI came to 51.5 µM.

The test system of a further assay is EKVX NSCLC. Briefly: inhibition of tumour cell growth, NCI panel, 48 h.
Regarding `CCOC(=O)NC(=O)c1cn(CCCO)c(=O)[nH]c1=O`, the TGI is greater than 100 µM.

With `CCN1c2ccccc2C(C(SC)S(=O)(=O)c2ccc(C)cc2)c2c1[nH]c(=O)n(C)c2=O` (stereo unspecified), the TGI was greater than 100 µM.

`COc1ccc(S(=O)(=O)NNS(C)(=O)=O)cc1` registered a TGI greater than 100 µM.

Regarding `Cc1cc(-c2ccc3nc(C4CCOCC4)n(CCOC(F)(F)F)c3c2)cn(C)c1=O`, the GI50 is 0.761 µM and the TGI is greater than 100 µM.

Take `CC(=O)OC1COC(n2ccc3cc(Br)c([N+](=O)[O-])cc32)C(OC(C)=O)C1OC(C)=O` (stereo unspecified): the TGI is greater than 100 µM.

`COc1cc(C2c3cc4c(cc3OC(C)(O)C2C)OCO4)cc(OC)c1OC` (stereo unspecified) gave a TGI greater than 100 µM.

Consider `Cn1cnc([N+](=O)[O-])c1Sc1nc2ccccc2[nH]1`, for which the TGI is 36.9 µM.

Turning to `O=C1c2cc3c(cc2-c2c1c1ccc(F)cc1c(=O)n2CCCNCCO)OCO3`, the GI50 was 0.211 µM and the TGI stood at 1.21 µM.

Take `COc1ccc([C@H]2[C@@H](F)C(=O)N2c2cc(OC)c(OC)c(OC)c2)cc1F`: the GI50 is 0.202 µM and the TGI was greater than 100 µM.

In turn, `CCCCCCCCC/C=C1\CCC(CN2CCOCC2)C1=O` (stereo unspecified) registered a TGI of 33.9 µM.

In turn, `CCCCCCN(CCCCCC)C(=O)Cc1c2n(c3ccccc13)Cc1ccccc1-2` yielded a TGI greater than 100 µM.

For `CC(=O)[C@@]12O[C@@H]1CC1C3CCC4=CC(O)CCC4(C)C3CCC12C` (stereo partly specified), the GI50 is greater than 100 µM and the TGI was greater than 100 µM.

`C/C(=N\NC(=S)NC(CCC(=O)O)C(=O)O)c1ccccn1` (stereo unspecified) came in with a TGI greater than 100 µM.

Take `Brc1ccccc1C1SCc2nc3ccccc3n21` (stereo unspecified): the TGI came out at 45.6 µM.

Regarding `O=C(/C=C\c1ccc(Cl)c(Cl)c1)c1ccc(Cl)cc1Cl`, the TGI was found to be 56.2 µM.

With `CCOC(=O)C(=C=C=C(c1ccccc1)c1ccccc1)C(=O)OCC`, the TGI amounted to 82.8 µM.

Consider `c1ccc(COc2cccc3ccc[n+](Cc4ccccc4)c23)cc1`, for which the TGI is greater than 100 µM.

`CN(C)c1ccc(/C=C(\NC(=O)c2ccccc2)c2nc3ncncc3[nH]2)cc1` registered a TGI greater than 100 µM.

`CC1=CC(O)(c2ccc(-c3ccccc3Cl)cc2)OC1=O` (stereo unspecified) returned a TGI greater than 100 µM.

Regarding `CCOC(=O)CC(=O)ON(C)C(C)=O`, the TGI was greater than 100 µM.

`CCc1cc(Cc2cc(CC)c(NC(=O)C(=O)Cc3ccccn3)c(CC)c2Cl)c(Cl)c(CC)c1NC(=O)C(=O)Cc1ccccn1` showed a TGI greater than 100 µM.

As for `CC(C)OP(=O)(OC(C)C)C(=NCCN=C(NNc1ccc([N+](=O)[O-])cc1)P(=O)(OC(C)C)OC(C)C)NNc1ccc([N+](=O)[O-])cc1`, the TGI is greater than 100 µM.

The compound `COC(OC)C(C)CC(=O)N(C)C` (stereo unspecified) showed a TGI greater than 100 µM.

On to `CC(C)=Cc1cc(C(=O)Nc2ccc(Cl)c(Cl)c2)nc(N)n1`, for which the TGI is greater than 100 µM.

`CC(=O)/C(=C\c1cccc([N+](=O)[O-])c1)C(=O)Nc1ccccc1C` had a TGI greater than 100 µM.

In turn, `Clc1ccc(C(c2ccc(Cl)cc2)c2ccccn2)cc1` came in with a TGI of 52.5 µM.

Another assay concerns HCT-116 colon. Briefly: inhibition of tumour cell growth, NCI panel, 48 h.
`CCOC(=O)NC(=O)c1cn(CCCO)c(=O)[nH]c1=O` yielded a TGI greater than 100 µM.

`CCN1c2ccccc2C(C(SC)S(=O)(=O)c2ccc(C)cc2)c2c1[nH]c(=O)n(C)c2=O` (stereo unspecified) yielded a TGI greater than 100 µM.

Compound `COc1ccc(S(=O)(=O)NNS(C)(=O)=O)cc1` displayed a TGI greater than 100 µM.

`Cc1cc(-c2ccc3nc(C4CCOCC4)n(CCOC(F)(F)F)c3c2)cn(C)c1=O` gave a TGI of 14.8 µM.

Take `COc1cc(C2c3cc4c(cc3OC(C)(O)C2C)OCO4)cc(OC)c1OC` (stereo unspecified): the TGI is 75.2 µM.

`Cn1cnc([N+](=O)[O-])c1Sc1nc2ccccc2[nH]1` had a TGI of 30.1 µM.

As for `O=C1c2cc3c(cc2-c2c1c1ccc(F)cc1c(=O)n2CCCNCCO)OCO3`, the GI50 was 0.019 µM and the TGI was determined as 0.196 µM.

Consider `COc1ccc([C@H]2[C@@H](F)C(=O)N2c2cc(OC)c(OC)c(OC)c2)cc1F`, for which the GI50 is 0.0325 µM and the TGI is greater than 100 µM.

Turning to `CCCCCCCCC/C=C1\CCC(CN2CCOCC2)C1=O` (stereo unspecified), the TGI stood at 4.04 µM.

In the case of `CCCCCCN(CCCCCC)C(=O)Cc1c2n(c3ccccc13)Cc1ccccc1-2`, the TGI was greater than 100 µM.

For `CC(=O)[C@@]12O[C@@H]1CC1C3CCC4=CC(O)CCC4(C)C3CCC12C` (stereo partly specified), the GI50 is 31.7 µM and the TGI is greater than 100 µM.

Compound `C/C(=N\NC(=S)NC(CCC(=O)O)C(=O)O)c1ccccn1` (stereo unspecified) had a TGI greater than 100 µM.

Consider `Brc1ccccc1C1SCc2nc3ccccc3n21` (stereo unspecified), for which the TGI stood at 26 µM.

As to `O=C(/C=C\c1ccc(Cl)c(Cl)c1)c1ccc(Cl)cc1Cl`, the GI50 was 2.68 µM and the TGI was greater than 100 µM.

In the case of `CCOC(=O)C(=C=C=C(c1ccccc1)c1ccccc1)C(=O)OCC`, the TGI is 38.6 µM.

As for `Cn1c2ccccc2c2cc(-c3ccccc3)c3c(c21)C(=O)c1ccccc1C3=O`, the TGI turned out to be 36.3 µM.

For the compound `CCOC(=O)CC(=O)ON(C)C(C)=O`, the TGI is greater than 100 µM.

The compound `CCc1cc(Cc2cc(CC)c(NC(=O)C(=O)Cc3ccccn3)c(CC)c2Cl)c(Cl)c(CC)c1NC(=O)C(=O)Cc1ccccn1` had a TGI greater than 100 µM.

In the case of `CC(C)OP(=O)(OC(C)C)C(=NCCN=C(NNc1ccc([N+](=O)[O-])cc1)P(=O)(OC(C)C)OC(C)C)NNc1ccc([N+](=O)[O-])cc1`, the TGI was greater than 100 µM.

Compound `COC(OC)C(C)CC(=O)N(C)C` (stereo unspecified) returned a TGI greater than 100 µM.

Turning to `O=S1(=O)OCCOS(=O)(=O)C1Br`, the TGI was greater than 100 µM.

Take `CC(C)=Cc1cc(C(=O)Nc2ccc(Cl)c(Cl)c2)nc(N)n1`: the TGI was greater than 100 µM.

In turn, `C#CC1(O)CCC2C3CCc4cc(Oc5nc(F)nc(-c6c7ccccc7c7sc8ccccc8n67)n5)ccc4C3CC[C@@]21C` (stereo partly specified) gave a TGI greater than 100 µM.

In turn, `CC(=O)/C(=C\c1cccc([N+](=O)[O-])c1)C(=O)Nc1ccccc1C` registered a TGI greater than 100 µM.
